Reference: patent publication US20070021419A1, “2-Aminophenyl-4-phenylpyrimidines as kinase inhibitors” (Cyclacel Limited, priority 2003, published 2007)

Experiments:
PLK-1 = PLK-1 (Homo sapiens, UniProt P53350); assay: Kinase assay, radioactive phosphate incorporation, PLK-1; assay type: biochemical; conditions: 100 μM ATP, 30° C.; read-out: Kinase inhibition IC50 PLK-1
Procedure: (§1) The compounds from the examples above were investigated for their ability to inhibit the enzymatic activity of various protein kinases. This was achieved by measurement of incorporation of radioactive phosphate from ATP into appropriate polypeptide substrates. Recombinant protein kinases and kinase complexes were produced or obtained commercially. Assays were performed using 96-well plates and appropriate assay buffers (typically 25 mM β-glycerophosphate, 20 mM MOPS, 5 MM EGTA, 1 mM DTT, 1 mM Na3VO3, pH 7.4), into which were added 2-4 μg of active enzyme with appropriate substrates. The reactions were initiated by addition of Mg/ATP mix (15 mM MgCl2+100 μM ATP with 30-50 kBq per well of [γ-^32P]-ATP) and mixtures incubated as required at 30° C. Reactions were stopped on ice, followed by filtration through p81 filterplates or GF/C filterplates (Whatman Polyfiltronics, Kent, UK). After washing 3 times with 75 mM aq orthophosphoric acid, plates were dried, scintillant added and incorporated radioactivity measured in a scintillation counter (TopCount, Packard Instruments, Pangbourne, Berks, UK). Compounds for kinase assay were made up as 10 mM stocks in DMSO and diluted into 10% DMSO in assay buffer.

HT29 = assay: 72-h MTT cytotoxicity assay, HT29; assay type: cell-based; conditions: Homo sapiens, HT-29, read-out: 72-h MTT IC50 HT29, HT29 cell line
In short: (§2)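 Standard proliferation test: 72 h compound exposure at 37° C in triplicate, followed by MTT staining and DMSO solubilisation.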

Saos-2 = assay: 72-h MTT cytotoxicity assay, Saos-2; assay type: cell-based; conditions: Homo sapiens, read-out: 72-h MTT IC50 Saos-2, Saos-2 cell line
In short: as §2

CDK2/cyclin E = CDK2/cyclin E (Homo sapiens, UniProt P24941); assay: Kinase assay, radioactive phosphate incorporation, CDK2/cyclin E; assay type: biochemical; conditions: 100 μM ATP, 30° C.; read-out: Kinase inhibition IC50 CDK2/cyclin E
In short: (§3)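 Inhibition is measured as reduced transfer of radioactive phosphate to a polypeptide substrate by 2-4 μg of recombinant enzyme. Mixtures with Mg/ATP (100 μM ATP, 15 mM MgCl2, [γ-32P]-ATP) in pH 7.4 MOPS-based buffer incubate at 30° C, are stopped on ice, filtered and counted.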

A549 = assay: 72-h MTT cytotoxicity assay, A549; assay type: cell-based; conditions: Homo sapiens, read-out: 72-h MTT IC50 A549, A549 cell line
In short: as §2

[1] = tested on: transformed human cell lines (A549, HT29, Saos-2); assay: 72-h MTT cytotoxicity assay, average of cell lines; assay type: cell-based; conditions: read-out: 72-h MTT IC50 Average, average of A549, HT29, Saos-2
In short: as §2

GSK3β = GSK3β (Homo sapiens, UniProt P49841); assay: Kinase assay, radioactive phosphate incorporation, GSK3β; assay type: biochemical; conditions: 100 μM ATP, 30° C.; read-out: Kinase inhibition IC50 GSK3β
In short: as §3

Aurora-A = target: T1, Aurora-A (Homo sapiens, UniProt O14965); assay: Kinase assay, radioactive phosphate incorporation, Aurora-A; assay type: biochemical; conditions: 100 μM ATP, 30° C.; read-out: Kinase inhibition IC50 Aurora-A
T1 sequence (O14965 1-403): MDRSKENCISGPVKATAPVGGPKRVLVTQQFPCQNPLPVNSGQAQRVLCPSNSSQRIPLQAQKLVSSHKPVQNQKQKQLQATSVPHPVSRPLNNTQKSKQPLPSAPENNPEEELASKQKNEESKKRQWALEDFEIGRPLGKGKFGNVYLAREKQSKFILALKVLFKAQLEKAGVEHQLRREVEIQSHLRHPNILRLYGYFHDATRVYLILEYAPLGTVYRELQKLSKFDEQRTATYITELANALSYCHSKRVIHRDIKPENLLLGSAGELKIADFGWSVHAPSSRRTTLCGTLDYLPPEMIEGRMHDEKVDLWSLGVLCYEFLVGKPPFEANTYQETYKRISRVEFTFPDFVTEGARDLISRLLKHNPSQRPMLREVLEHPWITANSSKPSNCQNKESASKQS
Procedure: as §1

CDK4/cyclin D1 = CDK4/cyclin D1 (Homo sapiens, UniProt P11802); assay: Kinase assay, radioactive phosphate incorporation, CDK4/cyclin D1; assay type: biochemical; conditions: 100 μM ATP, 30° C.; read-out: Kinase inhibition IC50 CDK4/cyclin D1
In short: as §3

CDK2/cyclin A = CDK2/cyclin A (Homo sapiens, UniProt P24941); assay: Kinase assay, radioactive phosphate incorporation, CDK2/cyclin A; assay type: biochemical; conditions: 100 μM ATP, 30° C.; read-out: Kinase inhibition IC50 CDK2/cyclin A
In short: as §3

CDK7/cyclin H = CDK7/cyclin H (Homo sapiens, UniProt P50613); assay: Kinase assay, radioactive phosphate incorporation, CDK7/cyclin H; assay type: biochemical; conditions: 100 μM ATP, 30° C.; read-out: Kinase inhibition IC50 CDK7/cyclin H
In short: as §3

CDK9/cyclin T1 = CDK9/cyclin T1 (Homo sapiens, UniProt P50750); assay: Kinase assay, radioactive phosphate incorporation, CDK9/cyclin T1; assay type: biochemical; conditions: 100 μM ATP, 30° C.; read-out: Kinase inhibition IC50 CDK9/cyclin T1
In short: as §3

CDK1/cyclin B = CDK1/cyclin B (Homo sapiens, UniProt P06493); assay: Kinase assay, radioactive phosphate incorporation, CDK1/cyclin B; assay type: biochemical; conditions: 100 μM ATP, 30° C.; read-out: Kinase inhibition IC50 CDK1/cyclin B
In short: as §3

PLK-1, sequence (P53350 whole entry, species assumed): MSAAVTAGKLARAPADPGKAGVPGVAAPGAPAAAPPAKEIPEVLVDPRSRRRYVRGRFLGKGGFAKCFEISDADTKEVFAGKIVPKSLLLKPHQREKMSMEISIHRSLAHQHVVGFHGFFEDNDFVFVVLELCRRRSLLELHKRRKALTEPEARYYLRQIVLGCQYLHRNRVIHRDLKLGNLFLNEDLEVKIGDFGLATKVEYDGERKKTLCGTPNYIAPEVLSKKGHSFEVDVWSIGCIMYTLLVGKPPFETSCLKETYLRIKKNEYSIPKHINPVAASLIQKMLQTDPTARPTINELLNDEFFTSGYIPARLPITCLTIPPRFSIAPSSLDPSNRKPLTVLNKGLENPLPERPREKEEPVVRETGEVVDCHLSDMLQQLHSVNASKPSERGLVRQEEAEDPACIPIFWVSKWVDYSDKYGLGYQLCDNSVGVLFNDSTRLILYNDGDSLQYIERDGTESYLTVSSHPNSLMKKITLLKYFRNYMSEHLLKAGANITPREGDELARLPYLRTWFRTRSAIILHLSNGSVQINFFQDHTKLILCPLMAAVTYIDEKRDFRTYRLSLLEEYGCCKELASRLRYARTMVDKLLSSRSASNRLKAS
CDK1/cyclin B, sequence (P06493 whole entry, species assumed): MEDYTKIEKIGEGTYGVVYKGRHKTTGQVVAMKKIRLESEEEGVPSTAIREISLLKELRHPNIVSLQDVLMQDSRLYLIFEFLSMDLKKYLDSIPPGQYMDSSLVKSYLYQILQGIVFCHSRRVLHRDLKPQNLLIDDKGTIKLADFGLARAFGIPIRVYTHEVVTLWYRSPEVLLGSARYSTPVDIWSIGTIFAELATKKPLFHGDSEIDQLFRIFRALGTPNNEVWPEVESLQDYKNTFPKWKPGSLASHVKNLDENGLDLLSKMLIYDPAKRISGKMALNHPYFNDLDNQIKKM
CDK1/cyclin B, sequence (P14635 whole entry partner, species assumed): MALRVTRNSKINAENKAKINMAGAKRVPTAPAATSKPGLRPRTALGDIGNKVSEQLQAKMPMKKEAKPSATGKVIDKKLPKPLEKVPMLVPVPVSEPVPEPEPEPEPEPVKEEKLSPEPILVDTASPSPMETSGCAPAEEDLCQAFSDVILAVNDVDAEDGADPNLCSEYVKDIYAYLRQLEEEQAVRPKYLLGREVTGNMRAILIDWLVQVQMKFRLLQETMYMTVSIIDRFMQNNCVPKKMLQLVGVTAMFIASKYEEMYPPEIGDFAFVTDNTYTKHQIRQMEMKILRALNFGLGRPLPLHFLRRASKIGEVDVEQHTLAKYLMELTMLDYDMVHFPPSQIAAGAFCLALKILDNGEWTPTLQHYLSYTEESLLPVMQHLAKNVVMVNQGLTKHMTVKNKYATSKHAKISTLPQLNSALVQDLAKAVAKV
CDK9/cyclin T1, sequence (P50750 whole entry, species assumed): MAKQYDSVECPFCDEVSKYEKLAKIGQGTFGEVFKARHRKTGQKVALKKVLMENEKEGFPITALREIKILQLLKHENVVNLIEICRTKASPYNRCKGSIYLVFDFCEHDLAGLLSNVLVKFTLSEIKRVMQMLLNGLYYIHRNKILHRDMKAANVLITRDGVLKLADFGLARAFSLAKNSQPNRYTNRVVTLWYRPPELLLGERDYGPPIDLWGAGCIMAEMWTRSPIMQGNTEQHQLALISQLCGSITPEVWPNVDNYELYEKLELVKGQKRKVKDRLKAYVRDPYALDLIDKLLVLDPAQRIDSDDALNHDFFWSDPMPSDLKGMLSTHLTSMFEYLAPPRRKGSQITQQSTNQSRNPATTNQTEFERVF
CDK9/cyclin T1, sequence (O60563 whole entry partner, species assumed): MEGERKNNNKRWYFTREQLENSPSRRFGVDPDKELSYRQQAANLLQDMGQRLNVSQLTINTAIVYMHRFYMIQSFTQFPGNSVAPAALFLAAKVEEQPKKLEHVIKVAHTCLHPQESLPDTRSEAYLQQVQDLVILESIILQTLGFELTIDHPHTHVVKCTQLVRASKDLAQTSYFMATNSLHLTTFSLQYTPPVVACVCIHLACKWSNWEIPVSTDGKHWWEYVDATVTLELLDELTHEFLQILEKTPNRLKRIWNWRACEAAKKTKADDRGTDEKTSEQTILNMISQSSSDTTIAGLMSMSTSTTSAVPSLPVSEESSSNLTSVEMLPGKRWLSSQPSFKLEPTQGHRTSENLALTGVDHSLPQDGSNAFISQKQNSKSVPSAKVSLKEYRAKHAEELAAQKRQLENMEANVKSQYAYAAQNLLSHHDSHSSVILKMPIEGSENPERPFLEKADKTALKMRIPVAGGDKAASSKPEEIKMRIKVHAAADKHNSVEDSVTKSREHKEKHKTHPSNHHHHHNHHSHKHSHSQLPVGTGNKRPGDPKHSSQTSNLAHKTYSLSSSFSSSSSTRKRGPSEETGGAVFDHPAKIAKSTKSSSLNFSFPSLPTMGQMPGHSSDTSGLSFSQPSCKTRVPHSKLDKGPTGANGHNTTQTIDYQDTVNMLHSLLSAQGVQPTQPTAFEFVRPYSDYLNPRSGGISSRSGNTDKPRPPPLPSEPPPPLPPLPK
CDK4/cyclin D1, sequence (P11802 whole entry, species assumed): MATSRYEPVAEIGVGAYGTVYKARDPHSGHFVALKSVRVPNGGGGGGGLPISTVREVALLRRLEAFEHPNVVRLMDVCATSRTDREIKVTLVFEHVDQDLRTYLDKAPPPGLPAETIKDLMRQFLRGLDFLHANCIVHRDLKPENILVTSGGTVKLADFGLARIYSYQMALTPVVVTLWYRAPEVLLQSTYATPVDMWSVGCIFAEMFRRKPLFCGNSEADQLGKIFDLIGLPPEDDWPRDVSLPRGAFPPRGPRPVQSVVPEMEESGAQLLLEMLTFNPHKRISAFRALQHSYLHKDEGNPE
CDK4/cyclin D1, sequence (P24385 whole entry partner, species assumed): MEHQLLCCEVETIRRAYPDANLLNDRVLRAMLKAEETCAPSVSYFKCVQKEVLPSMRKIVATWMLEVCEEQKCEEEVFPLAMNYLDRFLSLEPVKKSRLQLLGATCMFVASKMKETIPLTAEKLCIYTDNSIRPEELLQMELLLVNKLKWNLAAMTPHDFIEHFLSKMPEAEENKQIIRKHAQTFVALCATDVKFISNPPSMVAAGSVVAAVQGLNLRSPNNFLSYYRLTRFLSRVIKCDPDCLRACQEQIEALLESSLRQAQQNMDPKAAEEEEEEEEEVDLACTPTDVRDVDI
CDK7/cyclin H, sequence (P50613 whole entry, species assumed): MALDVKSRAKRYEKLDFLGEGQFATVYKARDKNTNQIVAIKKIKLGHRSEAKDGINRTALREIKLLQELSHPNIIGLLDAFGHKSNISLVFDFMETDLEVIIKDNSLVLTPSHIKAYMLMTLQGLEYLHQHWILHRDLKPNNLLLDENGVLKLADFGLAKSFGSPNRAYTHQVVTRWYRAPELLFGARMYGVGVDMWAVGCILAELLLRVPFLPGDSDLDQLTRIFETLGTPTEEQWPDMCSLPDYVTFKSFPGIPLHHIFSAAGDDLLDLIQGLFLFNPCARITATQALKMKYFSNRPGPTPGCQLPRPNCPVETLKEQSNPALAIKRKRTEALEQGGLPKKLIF
CDK7/cyclin H, sequence (P51946 whole entry partner, species assumed): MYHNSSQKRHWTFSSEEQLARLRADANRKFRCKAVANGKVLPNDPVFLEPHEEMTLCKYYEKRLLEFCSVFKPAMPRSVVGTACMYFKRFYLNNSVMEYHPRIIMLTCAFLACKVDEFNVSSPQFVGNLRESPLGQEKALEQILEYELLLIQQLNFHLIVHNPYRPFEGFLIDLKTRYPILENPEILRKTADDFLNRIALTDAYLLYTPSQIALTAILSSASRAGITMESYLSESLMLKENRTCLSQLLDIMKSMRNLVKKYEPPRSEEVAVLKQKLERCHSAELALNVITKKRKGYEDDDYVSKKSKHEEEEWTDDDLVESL
GSK3β, sequence (P49841 whole entry, species assumed): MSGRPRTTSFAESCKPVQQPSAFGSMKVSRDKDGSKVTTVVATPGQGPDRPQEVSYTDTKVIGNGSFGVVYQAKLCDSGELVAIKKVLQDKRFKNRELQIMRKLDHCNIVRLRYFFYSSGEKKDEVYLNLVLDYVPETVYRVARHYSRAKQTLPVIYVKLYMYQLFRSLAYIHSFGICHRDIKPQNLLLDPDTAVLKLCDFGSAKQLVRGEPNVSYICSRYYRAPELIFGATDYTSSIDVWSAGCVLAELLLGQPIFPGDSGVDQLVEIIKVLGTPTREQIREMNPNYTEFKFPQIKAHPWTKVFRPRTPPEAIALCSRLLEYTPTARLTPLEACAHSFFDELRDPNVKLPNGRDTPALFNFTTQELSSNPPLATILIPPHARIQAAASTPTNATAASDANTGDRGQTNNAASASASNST

Structure (SMILES) | IC50 (PLK-1) | IC50 (CDK2/cyclin E) | IC50 (HT29) | IC50 (Saos-2) | IC50 (A549) | IC50 [1] | other results
O=[N+]([O-])c1ccc(Nc2nccc(-c3cccc([N+](=O)[O-])c3)n2)cc1 [Compound 2, (4-Nitro-phenyl)-[4-(3-nitro-phenyl)-pyrimidin-2-yl]-amine] | 6.5 µM | – | – | – | – | – | –
CC(=O)N(CC(C)C)c1cccc(-c2ccnc(Nc3ccc(O)cc3)n2)c1 [Compound 13, N-{3-[2-(4-Hydroxy-phenylamino)-pyrimidin-4-yl]-phenyl}-N-isobutyl-acetamide] | 14.5 µM | 0.55 µM | – | – | – | – | –
CNc1cccc(-c2ccnc(Nc3ccc(O)cc3)n2)c1 [Compound 14, 4-[4-(3-Methylamino-phenyl)-pyrimidin-2-ylamino]-phenol] | 13.7 µM | 0.045 µM | – | – | – | – | –
Clc1ccc(Nc2nccc(-c3cccc(Cl)c3)n2)cc1 [Compound 16, (4-Chloro-phenyl)-[4-(3-chloro-phenyl)-pyrimidin-2-yl]-amine] | 8.7 µM | – | – | – | – | – | –
NC(=O)C1CCCN(Cc2cccc(-c3ccnc(Nc4cccc([N+](=O)[O-])c4)n3)c2)C1 (centres unmarked) [Compound 99, 1-{3-[2-(3-Nitro-phenylamino)-pyrimidin-4-yl]-benzyl}-piperidine-3-carboxylic acid amide] | – | 0.2 µM | 2.6 µM | 4.1 µM | 3 µM | 3.2 ± 0.8 µM | IC50 (GSK3β): 0.04 µM; IC50 (Aurora-A): 1 µM; IC50 (CDK4/cyclin D1): 3.8 µM; IC50 (CDK2/cyclin A): 1.7 µM; IC50 (CDK7/cyclin H): 0.18 µM; IC50 (CDK9/cyclin T1): 0.001 µM; IC50 (CDK1/cyclin B): 1.2 µM

The next lines start with results.

IC50 (PLK-1) | IC50 (CDK2/cyclin E) | Structure (SMILES) | IC50 (HT29) | IC50 (Saos-2) | IC50 (A549) | IC50 [1] | other results
4.8 µM | 0.16 µM | CCN(C(C)=O)c1cccc(-c2ccnc(Nc3ccc(O)cc3)n2)c1 [Compound 10, N-Ethyl-N-{3-[2-(4-hydroxy-phenylamino)-pyrimidin-4-yl]-phenyl}-acetamide] | 9.7 µM | 5.4 µM | 8 µM | 7.7 ± 2.2 µM | –
6.9 µM | 0.25 µM | CC(=O)Nc1cccc(-c2ccnc(Nc3ccc(O)cc3)n2)c1 [Compound 11, N-{3-[2-(4-Hydroxy-phenylamino)-pyrimidin-4-yl]-phenyl}-acetamide] | 7.5 µM | 7.1 µM | 8.3 µM | 7.6 ± 0.6 µM | –
7.8 µM | 0.36 µM | Nc1cccc(-c2ccnc(Nc3ccc(O)cc3)n2)c1 [Compound 15, 4-[4-(3-Amino-phenyl)-pyrimidin-2-ylamino]-phenol] | – | – | – | – | –
